We go through 6 molecules from article PMC5493200 (ACS infectious diseases, 2016).

In brackets after ≈: the same amount, converted by molar mass. Read-outs that look alike come from different tables or passages of the source.

For data set [1], the target named is Purified 70S M. smegmatis bacterial ribosomes (Mycolicibacterium smegmatis, UniProt A0QSG6). Briefly: Ribosomal translation inhibition. In kind it is biochemical. The following applies: inhibits luciferase activity by 50%.
Data set [2] deals with M. tuberculosis H37Rv Rv1258c knockout (KO). Briefly: microbe, parasite or virus in culture. The format is cell-based. The note with it: for Rv1258c KO MIC: Tables 1-4 and text, 7 days, 7H9 broth.
The test system of the next data set is Rv1258c efflux pump. The following applies: H37Rv MIC / Rv1258c KO MIC.
For data set [3] the following is noted: heteroaryl ring of side chain; ref not given; cited from earlier work.
Another data set deals with M. tuberculosis H37Rv. Briefly: microbe, parasite or virus in culture. In kind it is cell-based, Mycobacterium tuberculosis. The following applies: for H37Rv MIC: Tables 1-4 and text; for MIC (H37Rv): Table 5.
A short description of the next data set: Protein binding, mouse. The format is in vitro ADME.
The test system of the next data set is M. tuberculosis Erdman. The data set can be described thus: Mouse model of acute tuberculosis infection. The format is in vivo. The following applies: 9 days, vs control.
Another data set concerns M. bovis BCG. The format is cell-based. The following applies: average of 2–3 replicates, standard deviation in parenthesis.
The nature of another data set: Protein binding, human. The format is in vitro ADME.
The next data set relates to HepG2 cells. Briefly: Mammalian cytotoxicity. In kind it is cell-based.
A short description of data set [4]: Microsomal stability, human. The note with it: human liver microsomes. In kind it is in vitro ADME.
Data set [5] is described as follows: Microsomal stability, mouse. The note with it: mouse liver microsomes. In kind it is in vitro ADME. On the technique in general: Microsomes from liver hold many membrane-bound enzymes, among them those of drug oxidation.
Data set [6] is described as follows: Maximum tolerated dose / tolerability. The format is in vivo, mouse. The following applies: mice, efficacy trial dosing (Table S3).
The conditions of data set [7]: ref [18]; cited from earlier work.
The conditions of data set [8]: mouse liver microsomes; starred compounds; ref [4]; cited from earlier work.
The conditions of data set [9]: human liver microsomes; starred compounds; ref [4]; cited from earlier work.
Setting [10] is: first new trial (Figure 3B), 200 mg/kg BID, subcutaneous.

Purified 70S M. smegmatis bacterial ribosomes, sequence (A0QSG6 whole entry): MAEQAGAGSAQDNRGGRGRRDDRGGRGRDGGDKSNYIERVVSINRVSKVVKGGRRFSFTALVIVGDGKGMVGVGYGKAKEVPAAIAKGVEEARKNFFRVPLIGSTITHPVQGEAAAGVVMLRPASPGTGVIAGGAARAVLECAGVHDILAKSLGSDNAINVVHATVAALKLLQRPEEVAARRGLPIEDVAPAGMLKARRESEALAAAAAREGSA

As for `CN[C@@H]1[C@H](O)[C@H](NC)[C@H]2O[C@]3(O)[C@H](O[C@@H]2[C@H]1O)O[C@H](C)C[C@H]3NC(=O)Cc1ncc[nH]1.Cl.Cl.Cl` [Compound 21, 3′-Dihydro-3′-deoxy-3′(R)-(1H-imidazol-2-yl)acetylamino spectinomycin trihydrochloride], in data set [1], the “Ribosome IC50” value came out at 0.56 µg/mL. In addition, the “Rv1258c KO MIC” value in [2] is 6.3 µg/mL. Further, in the data set with Rv1258c efflux pump, the “Efflux Ratio” value is reported as 2. Moreover, in data set [3], the pKa (usually the pH at which an ionisable group is half protonated) was 7.0. Besides, the “H37Rv MIC” value in the data set on M. tuberculosis H37Rv is 12.5 µg/mL.
With `Br.Br.Br.CN[C@@H]1[C@H](O)[C@H](NC)[C@H]2O[C@]3(O)[C@H](O[C@@H]2[C@H]1O)O[C@H](C)C[C@H]3NC(=O)Cc1nc2ccccc2[nH]1` [Compound 27, 3′-Dihydro-3′-deoxy-3′(R)-(1H-benzo[d]imidazol-2-yl)acetylamino spectinomycin trihydrobroride], the Protein binding mouse in “Protein binding, mouse” stood at 12.1%. Moreover, the “Ribosome IC50” value in data set [1] is 0.26 µg/mL. For the same molecule, in data set [2], the “Rv1258c KO MIC” value is 1.6 µg/mL. In the data set with Rv1258c efflux pump, the “Efflux Ratio” value came to 1. In the data set on M. tuberculosis Erdman (setting [10]), the “Reduction of bacterial load in lungs” value was 1.6 logs. In addition, the pKa in data set [3] is given as 5.6. Also, in the data set on M. tuberculosis H37Rv, the “MIC (H37Rv)” value amounted to 1.6 µg/mL and the “H37Rv MIC” value is 1.6 µg/mL. Further, the “Post Antibiotic Effect” value in the data set with M. bovis BCG turned out to be 137 h. Besides, the Protein binding human in “Protein binding, human” worked out at 26.3%. Besides, the “Cytotoxicity (HepG2)” value with HepG2 cells is over 400 µg/mL. The “Microsomal stability t1/2 human” value in data set [4] was over 50 h. The “Microsomal stability t1/2 mouse” value in data set [5] is reported as over 50 h.
As for `CN[C@@H]1[C@H](O)[C@H](NC)[C@H]2O[C@]3(O)[C@H](O[C@@H]2[C@H]1O)O[C@H](C)C[C@H]3NC(=O)Cc1ccc(OC(F)(F)F)cn1.Cl.Cl.Cl` [Compound 41, 3′-Dihydro-3′-deoxy-3′(R)-(5-(trifluoromethoxy)pyridin-2-yl)acetylamino spectinomycin trihydrochloride], the Protein binding mouse in “Protein binding, mouse” turned out to be 58.4%. The “Ribosome IC50” value in data set [1] was 0.96 µg/mL. Moreover, the “Rv1258c KO MIC” value in [2] was 0.8 µg/mL. This molecule registered a Well tolerated dosing in data set [6] of 100 mg/kg. Besides, in the data set with Rv1258c efflux pump, the “Efflux Ratio” value is on record as 4. Also, the “Reduction of bacterial load in lungs” value with M. tuberculosis Erdman (second new trial (Figure 3C), 100 mg/kg) came to 1.1 log. In the data set on M. tuberculosis H37Rv, the “MIC (H37Rv)” value stood at 3.1 µg/mL and the “H37Rv MIC” value was 3.1 µg/mL. Moreover, the “Post Antibiotic Effect” value with M. bovis BCG is on record as 61 (17) h. Further, in “Protein binding, human”, the Protein binding human turned out to be 51.4%. Besides, the “Cytotoxicity (HepG2)” value in the data set with HepG2 cells is over 400 µg/mL. Also, in data set [4], the “Microsomal stability t1/2 human” value came out at 22.4 h. In addition, the “Microsomal stability t1/2 mouse” value in [5] came to 27.0 h.
In “Protein binding, mouse”, `Br.Br.Br.CN[C@@H]1[C@H](O)[C@H](NC)[C@H]2O[C@]3(O)[C@H](O[C@@H]2[C@H]1O)O[C@H](C)C[C@H]3NC(=O)Cc1cc(Cl)c(C)cn1` [Compound 47, 3′-Dihydro-3′-deoxy-3′(R)-(4-chloro-5-methylpyridin-2-yl)acetylamino spectinomycin trihydrobromide] showed a Protein binding mouse of 42.7%. Besides, the “Ribosome IC50” value in data set [1] was determined as 0.23 µg/mL. In data set [2], the “Rv1258c KO MIC” value came out at 0.8 µg/mL. For the same molecule, the “Reduction of bacterial load in lungs” value in the data set with M. tuberculosis Erdman (setting [10]) is “more than 2 logs”. Moreover, the “Phase II conjugative metabolism” value in [7] is “subject to some phase II conjugative metabolism”. Besides, in the data set on M. tuberculosis H37Rv, the “MIC (H37Rv)” value is 0.8 µg/mL and the “H37Rv MIC” value was found to be 0.8 µg/mL. For the same molecule, in the data set with M. bovis BCG, the “Post Antibiotic Effect” value is listed as 102 (15) h. Besides, in “Protein binding, human”, the Protein binding human came to 43.9%. In the data set with HepG2 cells, the “Cytotoxicity (HepG2)” value was over 400 µg/mL. Moreover, the “Microsomal stability t1/2 human” value in data set [4] was over 50 h. Moreover, in [5], the “Microsomal stability t1/2 mouse” value is over 50 h.
Consider `Br.Br.Br.CN[C@@H]1[C@H](O)[C@H](NC)[C@H]2O[C@]3(O)[C@H](O[C@@H]2[C@H]1O)O[C@H](C)C[C@H]3NC(=O)Cc1cc(Cl)c(OC)cn1` [Compound 48, 3′-Dihydro-3′-deoxy-3′(R)-(4-chloro-5-methoxypyridin-2-yl)acetylamino spectinomycin trihydrobromide], for which the Protein binding mouse in “Protein binding, mouse” was 72.9%. Moreover, the “Ribosome IC50” value in [1] amounted to 0.42 µg/mL. In data set [2], the “Rv1258c KO MIC” value is 3.1 µg/mL. For the same molecule, in the data set on M. tuberculosis Erdman (second new trial (Figure 3C), 200 mg/kg BID, subcutaneous), the “Reduction of bacterial load in lungs” value was found to be 1.6 log. For the same molecule, the “Phase II conjugative metabolism” value in data set [7] was “subject to metabolism”. Moreover, in the data set on M. tuberculosis H37Rv, the “MIC (H37Rv)” value came out at 3.1 µg/mL and the “H37Rv MIC” value was 3.1 µg/mL. Besides, the “Post Antibiotic Effect” value with M. bovis BCG was 72 (10) h. The molecule also gave a Protein binding human in “Protein binding, human” of 61.6%. Besides, the “Cytotoxicity (HepG2)” value in the data set on HepG2 cells was over 400 µg/mL. Also, the “Microsomal stability t1/2 human” value in data set [4] was 6.3 h. Besides, the “Microsomal stability t1/2 mouse” value in data set [5] was determined as 5.5 h.
As for `CN[C@@H]1[C@H](O)[C@H](NC)[C@H]2O[C@@]3(O)C(=O)C[C@@H](C)O[C@H]3O[C@@H]2[C@H]1O` [SPC, Spectinomycin, reference compound], the “Microsomal stability t1/2 mouse” value in data set [8] is reported as over 10 h. Further, the MIC stood at 6.3 µg/mL (≈ 19 µM) in data set [2] (Mycobacterium tuberculosis, H37RV, 168 h, read-out: Rv1258c KO MIC) and 100 µg/mL (≈ 301 µM) in the data set with M. tuberculosis H37Rv (Mycobacterium tuberculosis, H37RV, 168 h, read-out: H37Rv MIC). In addition, the “Efflux Ratio” value with Rv1258c efflux pump is listed as 16. Also, in data set [9], the “Microsomal stability t1/2 human” value is recorded as 2.5 h.
